Laboratory results as given in US20250263424A1, “KRAS INHIBITORS” (Bristol-Myers Squibb Company, priority 2022, published 2025).
Like-named read-outs stand apart in the source and are kept apart here.

Biological target: Recombinant GMPPNP-loaded KRAS G12C (KRAS-G12C(ON), active form) (Homo sapiens, UniProt P01116, G12C)
Assay: KRAS G12C RAF Disruption Assay (HTRF)
Type: biochemical
Details: GMPPNP-loaded KRAS G12C 5 nM, GST-RAF1 RBD 9 nM, read-out: KRASG12C RAF Disruption Assay (IC50)
Method: This is a functional assay that measures activity of compounds against […]., the active form of KRAS G12C. Recombinant GMPPNP-loaded KRAS G12C (5 nM) was treated with compound at room temperature for 20 minutes in assay buffer (50 mM Tris pH 7.5, 100 mM NaCl, 1 mM MgCl2, 1 mM DTT, 100 μg/ml BSA). Recombinant GST-RAF1 RBD (9 nM) was added, and the reaction mixture was incubated for 20 minutes. SA-Tb (0.25 nM) was added, and the reaction mixture was incubated for 3 hours. HTRF signal was measured (PerkinElmer Envision), the signal ratio (λem 520/λem 495) was calculated, and IC50 values were calculated from the dose-response curve.

Sequence of Recombinant GMPPNP-loaded KRAS G12C (KRAS-G12C(ON), active form) (P01116 1-188 isoform P01116-2 G12C): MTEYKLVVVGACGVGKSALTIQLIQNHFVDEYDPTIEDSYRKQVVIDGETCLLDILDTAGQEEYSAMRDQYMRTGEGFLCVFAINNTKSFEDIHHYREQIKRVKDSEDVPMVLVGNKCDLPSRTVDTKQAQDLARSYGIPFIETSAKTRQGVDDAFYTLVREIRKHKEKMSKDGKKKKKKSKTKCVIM

Compound | IC50 (values in nM) [nM] | IC50 (values given in μM) [nM]
Cc1cc(N)nc(-c2c(Cl)cc3c(N4CCC5(CN(C(=O)/C(F)=C/c6nccs6)C5)C4)nc(OC[C@@]45CCCN4C[C@H](F)C5)nc3c2F)c1C(F)(F)F (atropisomer, axis not shown; (M)) [Example 9, (Z)-1-(6-((7M)-7-(6-amino-4-methyl-3-(trifluoromethyl)pyridin-2-yl)-6-chloro-8-fluoro-2-(((2R,7aS)-2-fluorotetrahydro-1H-pyrrolizin-7a(5H)-yl)methoxy)quinazolin-4-yl)-2,6-diazaspiro[3.4]octan-2-yl)-2-fluoro-3-(thiazol-2-yl)prop-2-en-1-one] |  | 1900
Cc1cc(N)nc(-c2c(Cl)cc3c(N[C@H]4C[C@@H](NC(=O)/C(F)=C/c5nccs5)C4)nc(OC[C@]45CCCN4C[C@H](F)C5)nc3c2F)c1C(F)(F)F (atropisomer, axis not shown; (M)) [Example 13, (Z)-N-((1S,3s)-3-(((7M)-7-(6-amino-4-methyl-3-(trifluoromethyl)pyridin-2-yl)-6-chloro-8-fluoro-2-(((2R,7aR)-2-fluorotetrahydro-1H-pyrrolizin-7a(5H)-yl)methoxy)quinazolin-4-yl)amino)cyclobutyl)-2-fluoro-3-(thiazol-2-yl)acrylamide] |  | 1100
Cc1cc(N)nc(-c2c(Cl)cc3c(N4C[C@]5(NC(=O)/C(F)=C/c6ccccn6)CC[C@H]4C5)nc(OC[C@]45CCCN4C[C@H](F)C5)nc3c2F)c1C(F)(F)F (atropisomer, axis not shown; (M)) [Example 43, (2Z)-N-[(1S,4S)-2-[(7M)-2-{[(2R,7aR)-2-fluoro-hexahydro-1H-pyrrolizin-7a-yl]methoxy}-7-[6-amino-4-methyl-3-(trifluoromethyl)pyridin-2-yl]-6-chloro-8-fluoroquinazolin-4-yl]-2-azabicyclo[2.2.1]heptan-4-yl]-2-fluoro-3-(pyridin-2-yl)prop-2-enamide] | 190 | 
Cc1cc(N)nc(-c2c(Cl)cc3c(N4CCN(C(=O)/C(F)=C/c5nccs5)[C@@H](CC(N)=O)C4)nc(OC[C@@H]4CCCN4C)nc3c2F)c1C(F)(F)F (atropisomer, axis not shown; (M)) [Example 47, 2-[(2S)-4-[(7M)-7-[6-amino-4-methyl-3-(trifluoromethyl)pyridin-2-yl]-6-chloro-8-fluoro-2-{[(2S)-1-methylpyrrolidin-2-yl]methoxy}quinazolin-4-yl]-1-[(2Z)-2-fluoro-3-(thiazol-2-yl)prop-2-enoyl]piperazin-2-yl]acetamide] |  | 1330
Cc1cc(N)nc(-c2c(Cl)cc3c(N4C[C@H]5CC[C@@H]4[C@@H]5NC(=O)/C(F)=C/c4nccs4)nc(OC[C@@H]4CCCN4C)nc3c2F)c1C(F)(F)F (atropisomer, axis not shown; (M)) [Example 49, (2Z)-N-[(1R,4R,7R)-2-[(7M)-7-[6-amino-4-methyl-3-(trifluoromethyl)pyridin-2-yl]-6-chloro-8-fluoro-2-{[(2S)-1-methylpyrrolidin-2-yl]methoxy}quinazolin-4-yl]-2-azabicyclo[2.2.1]heptan-7-yl]-2-fluoro-3-(1,3-thiazol-2-yl)prop-2-enamide] |  | 2260
Cc1cc(N)nc(-c2c(Cl)cc3c(N4[C@@H]5CC[C@H]4[C@H]4CN(C(=O)/C(F)=C/c6nccs6)C[C@H]45)nc(OC[C@]45CCCN4C[C@H](F)C5)nc3c2F)c1C(F)(F)F (atropisomer, axis not shown; (aR)) [Example 17, (Z)-1-((3aR,4S,7R,7aS)-8-((7M)-7-(6-amino-4-methyl-3-(trifluoromethyl)pyridin-2-yl)-6-chloro-8-fluoro-2-(((2R,7aR)-2-fluorotetrahydro-1H-pyrrolizin-7a(5H)-yl)methoxy)quinazolin-4-yl)octahydro-2H-4,7-epiminoisoindol-2-yl)-2-fluoro-3-(thiazol-2-yl)prop-2-en-1-one] |  | 5800
C[C@H]1CN(C(=O)/C(F)=C/c2ccccn2)CCN1c1nc(OC[C@@H]2CCCN2C)nc2c(F)c(-c3cccc4cccc(Cl)c34)c(Cl)cc12 (single isomer, unassigned) [Example 3] |  | 5500
Cc1cc(N)nc(-c2c(Cl)cc3c(N4CC5CCC(C4)N5C(=O)/C(F)=C/c4ccccn4)nc(OC[C@]45CCCN4C[C@H](F)C5)nc3c2F)c1C(F)(F)F (single isomer, unassigned) [Example 5] |  | 2700
Cc1cc(N)nc(-c2c(Cl)cc3c(N4CC5CN(C(=O)/C(F)=C/c6nccs6)C5C4)nc(OC[C@]45CCCN4C[C@H](F)C5)nc3c2F)c1C(F)(F)F (single isomer, unassigned) [Example 15, Isomer 1] |  | 93800
Cc1cc(N)nc(-c2c(Cl)cc3c(N4CC5CN(C(=O)/C(F)=C/c6nccs6)C5C4)nc(OC[C@]45CCCN4C[C@H](F)C5)nc3c2F)c1C(F)(F)F (single isomer, unassigned) [Example 15, Isomer 2] |  | 47400
C#Cc1c(F)ccc2cc(O)cc(-c3c(Cl)cc4c(N5CC6CCC(C5)N6C(=O)/C(F)=C/c5ccccn5)nc(OC[C@@H]5CCCN5C)nc4c3F)c12 (single isomer, unassigned) [Example 20, Isomer 1] |  | 16500
C#Cc1c(F)ccc2cc(O)cc(-c3c(Cl)cc4c(N5CC6CCC(C5)N6C(=O)/C(F)=C/c5ccccn5)nc(OC[C@@H]5CCCN5C)nc4c3F)c12 (single isomer, unassigned) [Example 20, Isomer 2] |  | > 100000
Cc1cc(N)nc(-c2c(Cl)cc3c(N4CCC5C4CCN5C(=O)/C(F)=C/c4nccs4)nc(OC[C@]45CCCN4C[C@H](F)C5)nc3c2F)c1C(F)(F)F (single isomer, unassigned) [Example 25, Isomer 1] |  | 14100
Cc1cc(N)nc(-c2c(Cl)cc3c(N4CCC5C4CCN5C(=O)/C(F)=C/c4nccs4)nc(OC[C@]45CCCN4C[C@H](F)C5)nc3c2F)c1C(F)(F)F (single isomer, unassigned) [Example 25, Isomer 2] |  | 67600
Cc1cc(N)nc(-c2c(Cl)cc3c(N4CC5CCC4CN5C(=O)/C(F)=C/c4ccccn4)nc(OC[C@@H]4CCCN4C)nc3c2F)c1C(F)(F)F (stereo partly drawn) [Example 6, (Z)-1-(5-((7M)-7-(6-amino-4-methyl-3-(trifluoromethyl)pyridin-2-yl)-6-chloro-8-fluoro-2-(((S)-1-methylpyrrolidin-2-yl)methoxy)quinazolin-4-yl)-2,5-diazabicyclo[2.2.2]octan-2-yl)-2-fluoro-3-(pyridin-2-yl)prop-2-en-1-one] |  | 4900

Continued, values first:

IC50 (values in nM) [nM] | IC50 (values given in μM) [nM] | Compound
2600 |  | Cc1cc(N)nc(-c2c(Cl)cc3c(N4C[C@]5(NC(=O)/C(F)=C/c6nccs6)CC[C@H]4C5)nc(OC[C@@H]4CCCN4C)nc3c2F)c1C(F)(F)F (atropisomer, axis not shown) [Example 69, (Z)-N-((1S,4S)-2-(7M-(6-amino-4-methyl-3-(trifluoromethyl)pyridin-2-yl)-6-chloro-8-fluoro-2-(((S)-1-methylpyrrolidin-2-yl)methoxy)quinazolin-4-yl)-2-azabicyclo[2.2.1]heptan-4-yl)-2-fluoro-3-(thiazol-2-yl)acrylamide]
 | 2590 | Cc1cc(N)nc(-c2c(Cl)cc3c(N4C[C@]5(NC(=O)/C(F)=C/c6nccs6)CC[C@H]4C5)nc(OC[C@@H]4CCCN4C)nc3c2F)c1C(F)(F)F (atropisomer, axis not shown; (M)) [Example 48, (2Z)-N-[(1S,4S)-2-[(7M)-7-[6-amino-4-methyl-3-(trifluoromethyl)pyridin-2-yl]-6-chloro-8-fluoro-2-{[(2S)-1-methylpyrrolidin-2-yl]methoxy}quinazolin-4-yl]-2-azabicyclo[2.2.1]heptan-4-yl]-2-fluoro-3-(thiazol-2-yl)prop-2-enamide]
 | 3370 | Cc1cc(N)nc(-c2c(Cl)cc3c(N4CCC5C(CCN5C(=O)/C(F)=C/c5nccs5)C4)nc(OC[C@]45CCCN4C[C@H](F)C5)nc3c2F)c1C(F)(F)F (single isomer, unassigned) [Example 26, Isomer 1]
 | 55200 | Cc1cc(N)nc(-c2c(Cl)cc3c(N4CCC5C(CCN5C(=O)/C(F)=C/c5nccs5)C4)nc(OC[C@]45CCCN4C[C@H](F)C5)nc3c2F)c1C(F)(F)F (single isomer, unassigned) [Example 26, Isomer 2]
 | 49000 | C[C@H]1CN(C(=O)/C(F)=C/c2nccs2)CCN1c1nc(OC[C@@H]2CCCN2C)nc2c(F)c(-c3cccc4cccc(Cl)c34)c(Cl)cc12 [Example 1, (Z)-1-((3S)-4-(6-chloro-7-(8-chloronaphthalen-1-yl)-8-fluoro-2-(((S)-1-methylpyrrolidin-2-yl)methoxy)quinazolin-4-yl)-3-methylpiperazin-1-yl)-2-fluoro-3-(thiazol-2-yl)prop-2-en-1-one]
 | 61300 | C[C@H]1CN(C(=O)/C(F)=C/c2ncccn2)CCN1c1nc(OC[C@@H]2CCCN2C)nc2c(F)c(-c3cccc4cccc(Cl)c34)c(Cl)cc12 [Example 2, (Z)-1-((3S)-4-(6-chloro-7-(8-chloronaphthalen-1-yl)-8-fluoro-2-(((S)-1-methylpyrrolidin-2-yl)methoxy)quinazolin-4-yl)-3-methylpiperazin-1-yl)-2-fluoro-3-(pyrimidin-2-yl)prop-2-en-1-one]
 | 2000 | Cc1cc(N)nc(-c2c(Cl)cc3c(N4CC5CCC(C4)N5C(=O)/C(F)=C/c4ccccn4)nc(OC[C@@]45CCCN4C[C@H](F)C5)nc3c2F)c1C(F)(F)F [Example 7, (Z)-1-((1R,5S)-3-((7M)-7-(6-amino-4-methyl-3-(trifluoromethyl)pyridin-2-yl)-6-chloro-8-fluoro-2-(((2R,7aS)-2-fluorotetrahydro-1H-pyrrolizin-7a(5H)-yl)methoxy)quinazolin-4-yl)-3,8-diazabicyclo[3.2.1]octan-8-yl)-2-fluoro-3-(pyridin-2-yl)prop-2-en-1-one]
